Source: US20040096436A1, “Methods for inhibiting protein kinases in cancer cells” (priority 2002, published 2004)

Columns and labels:
[1] = test system: activated PBL; test: α-tubulin polymerization assay in PBL activated with anti-CD3 and anti-CD28 antibodies; assay type: cell-based, human; conditions: PBL activated 24 hrs with anti-CD3 and anti-CD28, paclitaxel for one hour
Method: (§1) All primary cells were cultured in RPMI 1640 medium with 20% fetal bovine serum (regular medium) at a density of 2-5×10^6 cell/ml. In some cases, the PBL were stimulated for 24 hours with 1 μg/ml anti-CD3 and anti-CD28 antibodies (Alexis, San Diego, Calif.) prior to immunoblot analysis.
(§2) α-tubulin Polymerization Assay.
After a brief but vigorous vortex, the lysates were incubated at room temperature for 5 minutes, and then centrifuged at 16,000×g for 5 minutes to separate the soluble from polymerized α-tubulin. The supernatant and pellet fractions were resolved on 10-20% pre-cast tris-glycine gels (Novex, San Diego, Calif.) and then subjected to immune blotting with a specific anti-α-tubulin antibody.
The cytosolic (S) monomeric and particulate-bound (P) polymerized forms of α-tubulin were separated by centrifugation from drug-treated cells and assayed by immunoblotting.

[2] = test system: CLL cells; test: α-tubulin polymerization assay in CLL cells; assay type: cell-based, human; conditions: paclitaxel
Method: The Institutional Review Board of the University of California, San Diego approved this study, and all patients gave informed written consent to participation. Subjects had CLL according to National Cancer Institute (NCI) criteria of any Rai stage. None of the patients were in active chemotherapeutic treatments. Flow cytometric analysis determined that all specimens contained more than 90% CD5+ CD19+ B cells.
Peripheral blood from CLL patients or normal donors was layered on top of Ficoll-Paque Plus (Pharmacia, NJ) and centrifuged at 1200×g for twenty minutes. The enriched peripheral blood mononuclear cells (PBL) were washed several times with Ca++, Mg++-free HBSS.
as §1, §2
For each data point, 2×10^6 of cells were incubated in 2ml of regular medium containing drugs for various periods of time. The cells were then washed twice at room temperature, and resuspended in 50 μl of α-tubulin extraction buffer (1 mM MgCl2, 2 m MEGTA, 0.5% NP-40, 20 mM Tris-HCl, pH=6.8) supplemented with 2 mM phenylmethysulfonyl fluoride, and a protease inhibitor cocktail (Sigma). […]

CC(=O)O[C@H]1C(=O)[C@@]2(C)[C@H]([C@H](OC(=O)c3ccccc3)[C@]3(O)C[C@H](OC(=O)[C@H](O)[C@@H](NC(=O)c4ccccc4)c4ccccc4)C(C)=C1C3(C)C)[C@]1(OC(C)=O)CO[C@@H]1C[C@@H]2O [paclitaxel]
α-tubulin in the particulate fraction after treatment [1]: shift of α-tubulin to the particulate-bound fraction
α-tubulin relocalization to the particulate fraction after treatment [2]: nearly complete relocalization of α-tubulin to the particulate fraction
